Laboratory results: article PMC9448386, “Discovery of novel conjugates of quinoline and thiazolidinone urea as potential anti-colorectal cancer agent” (Journal of Enzyme Inhibition and Medicinal Chemistry, 2022)

Experiments:
HT-29 cells = assay: MTT assay, cytotoxic activity against HT-29; assay type: cell-based, human; conditions: SD shown
Excerpt: (§1) Taking lead compound BC2021-104511-15i, Fruquintinib and Regorafenib as positive controls, the cytotoxic activity against HT-29, HCT-116, COLO-205 and FHC cell lines by MTT assay. Detailed operation could be found in our previous study.

COLO 205 cells = assay: MTT assay, cytotoxic activity against COLO 205; assay type: cell-based; conditions: MTT, average of three separate determinations, SD shown
Excerpt: as §1

HCT-116 cells = assay: MTT assay, cytotoxic activity against HCT-116; assay type: cell-based; conditions: Homo sapiens, average of three separate determinations, SD shown
Excerpt: as §1

MST1R = MST1R (Homo sapiens, UniProt Q04912); assay: Mobility shift assay, MST1R kinase inhibition; assay type: biochemical; conditions: mean of two independent experiments
Protocol: (§2) Kinase inhibitory activity against HGFR, MST1R, ABL, PDGFRβ, AXL, FLT3, RET, c-Src, and VEGFR-2 was evaluated by the mobility shift assay. Detailed operation could be found in our previous research.

HGFR = HGFR (Homo sapiens, UniProt P08581); assay: Mobility shift assay, HGFR kinase inhibition; assay type: biochemical; conditions: mean of two independent experiments
Protocol: as §2

Ron (MST1R) = conditions: Figure 1; cited from earlier work
c-Src = c-Src (Homo sapiens, UniProt P12931); assay: Mobility shift assay, c-Src; assay type: biochemical; conditions: mean of two independent experiments, SD shown
Protocol: as §2

AXL = target: T1, AXL (Homo sapiens, UniProt P30530); assay: Mobility shift assay, AXL; assay type: biochemical; conditions: mean of two independent experiments, SD shown
T1 sequence (P30530 26-894): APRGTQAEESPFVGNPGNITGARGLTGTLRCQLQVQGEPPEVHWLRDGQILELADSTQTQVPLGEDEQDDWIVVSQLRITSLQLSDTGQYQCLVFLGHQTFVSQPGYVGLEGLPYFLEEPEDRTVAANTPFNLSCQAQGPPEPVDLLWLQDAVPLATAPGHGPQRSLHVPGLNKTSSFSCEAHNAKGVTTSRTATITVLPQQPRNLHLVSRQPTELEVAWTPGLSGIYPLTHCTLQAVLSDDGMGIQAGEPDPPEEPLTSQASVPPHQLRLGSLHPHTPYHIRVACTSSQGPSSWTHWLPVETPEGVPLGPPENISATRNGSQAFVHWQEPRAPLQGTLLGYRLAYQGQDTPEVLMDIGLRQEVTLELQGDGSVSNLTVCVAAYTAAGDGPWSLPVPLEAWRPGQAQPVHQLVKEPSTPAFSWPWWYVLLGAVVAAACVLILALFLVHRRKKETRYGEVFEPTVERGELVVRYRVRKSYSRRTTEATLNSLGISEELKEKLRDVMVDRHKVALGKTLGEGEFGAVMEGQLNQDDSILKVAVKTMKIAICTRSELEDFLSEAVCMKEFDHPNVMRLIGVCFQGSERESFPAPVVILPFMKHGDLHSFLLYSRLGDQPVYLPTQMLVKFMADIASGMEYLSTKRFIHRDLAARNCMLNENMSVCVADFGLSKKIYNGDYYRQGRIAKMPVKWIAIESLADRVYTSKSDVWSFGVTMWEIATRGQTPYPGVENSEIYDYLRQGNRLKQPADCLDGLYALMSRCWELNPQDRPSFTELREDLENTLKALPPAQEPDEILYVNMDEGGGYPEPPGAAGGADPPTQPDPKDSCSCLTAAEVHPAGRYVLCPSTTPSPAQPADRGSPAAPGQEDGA
Protocol: as §2

[1] = MTT assay, cytotoxicity against FHC cells; assay type: cell-based; conditions: FHC cells (normal colorectal mucosa epithelial cells); human normal colorectal mucosa epithelial cells; average of three separate determinations
Protocol: In order to investigate the cell selectivity index, the cytotoxicity of potent compounds against human normal colorectal mucosa epithelial cell FHC cells was determined.
as §1

PDGFRβ = PDGFRβ (Homo sapiens, UniProt P09619); assay: Mobility shift assay, PDGFRβ; assay type: biochemical; conditions: mean of two independent experiments, SD shown
Protocol: as §2

RET = RET (Homo sapiens, UniProt P07949); assay: Mobility shift assay, RET; assay type: biochemical; conditions: mean of two independent experiments, SD shown
Protocol: as §2

FLT3 = target: T2, FLT3 (Homo sapiens, UniProt P36888); assay: Mobility shift assay, FLT3; assay type: biochemical; conditions: mean of two independent experiments, SD shown
T2 sequence (P36888 27-993): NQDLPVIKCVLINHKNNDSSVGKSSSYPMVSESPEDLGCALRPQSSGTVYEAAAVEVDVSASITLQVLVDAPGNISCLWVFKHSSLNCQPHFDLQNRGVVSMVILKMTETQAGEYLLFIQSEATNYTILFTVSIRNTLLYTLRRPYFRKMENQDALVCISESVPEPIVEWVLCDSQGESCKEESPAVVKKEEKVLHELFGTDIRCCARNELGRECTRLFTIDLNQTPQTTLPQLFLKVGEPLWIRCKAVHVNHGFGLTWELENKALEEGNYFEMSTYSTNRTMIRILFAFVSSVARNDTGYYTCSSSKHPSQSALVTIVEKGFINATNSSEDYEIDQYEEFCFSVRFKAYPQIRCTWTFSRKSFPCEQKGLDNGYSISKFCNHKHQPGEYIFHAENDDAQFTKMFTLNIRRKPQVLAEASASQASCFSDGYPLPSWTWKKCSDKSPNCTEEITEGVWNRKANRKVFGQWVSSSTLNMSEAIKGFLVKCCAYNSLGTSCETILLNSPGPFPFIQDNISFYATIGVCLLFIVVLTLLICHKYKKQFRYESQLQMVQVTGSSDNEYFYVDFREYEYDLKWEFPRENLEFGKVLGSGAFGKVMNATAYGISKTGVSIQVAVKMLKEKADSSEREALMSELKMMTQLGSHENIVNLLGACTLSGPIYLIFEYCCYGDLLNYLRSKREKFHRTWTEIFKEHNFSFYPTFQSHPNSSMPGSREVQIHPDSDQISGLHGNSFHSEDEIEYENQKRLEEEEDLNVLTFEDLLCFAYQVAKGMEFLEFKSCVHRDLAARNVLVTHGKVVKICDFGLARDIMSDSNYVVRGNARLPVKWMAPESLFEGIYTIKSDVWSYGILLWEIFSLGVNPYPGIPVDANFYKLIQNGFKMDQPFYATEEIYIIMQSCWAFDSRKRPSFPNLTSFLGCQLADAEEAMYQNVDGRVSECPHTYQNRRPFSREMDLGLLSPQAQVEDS
Protocol: as §2

VEGFR-2 = VEGFR-2 (Homo sapiens, UniProt P35968); assay: Mobility shift assay, VEGFR-2; assay type: biochemical; conditions: mean of two independent experiments, SD shown
Protocol: as §2

ABL = ABL (Homo sapiens, UniProt P00519); assay: Mobility shift assay, ABL; assay type: biochemical; conditions: mean of two independent experiments, SD shown
Protocol: as §2

[2] = Homo sapiens, HT-29, average of three separate determinations

MST1R, sequence (Q04912 25-1400): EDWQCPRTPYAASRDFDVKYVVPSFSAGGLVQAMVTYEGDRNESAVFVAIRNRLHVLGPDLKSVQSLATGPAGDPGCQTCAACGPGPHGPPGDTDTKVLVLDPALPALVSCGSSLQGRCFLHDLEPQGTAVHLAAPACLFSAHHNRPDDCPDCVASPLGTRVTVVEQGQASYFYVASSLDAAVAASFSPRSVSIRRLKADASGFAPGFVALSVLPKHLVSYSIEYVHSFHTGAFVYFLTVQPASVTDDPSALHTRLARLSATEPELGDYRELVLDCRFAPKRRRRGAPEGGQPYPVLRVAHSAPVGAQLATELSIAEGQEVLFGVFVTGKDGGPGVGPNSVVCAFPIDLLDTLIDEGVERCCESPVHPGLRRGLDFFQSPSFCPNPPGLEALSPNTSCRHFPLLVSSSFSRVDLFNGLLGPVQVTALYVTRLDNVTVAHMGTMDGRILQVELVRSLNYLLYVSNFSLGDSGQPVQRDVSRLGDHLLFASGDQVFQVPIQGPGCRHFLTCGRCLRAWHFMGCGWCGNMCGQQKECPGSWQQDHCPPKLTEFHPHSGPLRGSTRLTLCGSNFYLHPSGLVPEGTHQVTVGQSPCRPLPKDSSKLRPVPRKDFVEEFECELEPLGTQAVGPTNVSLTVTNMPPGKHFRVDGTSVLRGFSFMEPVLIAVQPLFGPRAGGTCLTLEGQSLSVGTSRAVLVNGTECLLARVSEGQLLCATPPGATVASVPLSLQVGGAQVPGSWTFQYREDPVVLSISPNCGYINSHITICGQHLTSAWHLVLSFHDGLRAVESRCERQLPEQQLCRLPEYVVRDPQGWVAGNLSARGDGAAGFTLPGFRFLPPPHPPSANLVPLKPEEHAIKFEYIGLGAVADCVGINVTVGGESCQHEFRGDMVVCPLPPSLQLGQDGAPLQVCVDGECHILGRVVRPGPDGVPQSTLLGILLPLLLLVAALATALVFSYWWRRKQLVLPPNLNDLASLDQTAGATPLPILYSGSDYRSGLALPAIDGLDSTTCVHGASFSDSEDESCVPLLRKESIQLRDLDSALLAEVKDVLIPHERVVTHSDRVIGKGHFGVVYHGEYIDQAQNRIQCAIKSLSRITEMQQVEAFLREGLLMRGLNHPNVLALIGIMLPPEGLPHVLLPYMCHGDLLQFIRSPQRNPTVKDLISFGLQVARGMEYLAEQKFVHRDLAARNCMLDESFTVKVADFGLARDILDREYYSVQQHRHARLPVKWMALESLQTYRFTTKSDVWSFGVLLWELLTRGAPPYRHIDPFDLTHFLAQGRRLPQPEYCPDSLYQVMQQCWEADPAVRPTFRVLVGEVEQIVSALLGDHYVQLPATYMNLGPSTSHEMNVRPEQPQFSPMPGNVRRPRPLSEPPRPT
HGFR, sequence (P08581 25-1390): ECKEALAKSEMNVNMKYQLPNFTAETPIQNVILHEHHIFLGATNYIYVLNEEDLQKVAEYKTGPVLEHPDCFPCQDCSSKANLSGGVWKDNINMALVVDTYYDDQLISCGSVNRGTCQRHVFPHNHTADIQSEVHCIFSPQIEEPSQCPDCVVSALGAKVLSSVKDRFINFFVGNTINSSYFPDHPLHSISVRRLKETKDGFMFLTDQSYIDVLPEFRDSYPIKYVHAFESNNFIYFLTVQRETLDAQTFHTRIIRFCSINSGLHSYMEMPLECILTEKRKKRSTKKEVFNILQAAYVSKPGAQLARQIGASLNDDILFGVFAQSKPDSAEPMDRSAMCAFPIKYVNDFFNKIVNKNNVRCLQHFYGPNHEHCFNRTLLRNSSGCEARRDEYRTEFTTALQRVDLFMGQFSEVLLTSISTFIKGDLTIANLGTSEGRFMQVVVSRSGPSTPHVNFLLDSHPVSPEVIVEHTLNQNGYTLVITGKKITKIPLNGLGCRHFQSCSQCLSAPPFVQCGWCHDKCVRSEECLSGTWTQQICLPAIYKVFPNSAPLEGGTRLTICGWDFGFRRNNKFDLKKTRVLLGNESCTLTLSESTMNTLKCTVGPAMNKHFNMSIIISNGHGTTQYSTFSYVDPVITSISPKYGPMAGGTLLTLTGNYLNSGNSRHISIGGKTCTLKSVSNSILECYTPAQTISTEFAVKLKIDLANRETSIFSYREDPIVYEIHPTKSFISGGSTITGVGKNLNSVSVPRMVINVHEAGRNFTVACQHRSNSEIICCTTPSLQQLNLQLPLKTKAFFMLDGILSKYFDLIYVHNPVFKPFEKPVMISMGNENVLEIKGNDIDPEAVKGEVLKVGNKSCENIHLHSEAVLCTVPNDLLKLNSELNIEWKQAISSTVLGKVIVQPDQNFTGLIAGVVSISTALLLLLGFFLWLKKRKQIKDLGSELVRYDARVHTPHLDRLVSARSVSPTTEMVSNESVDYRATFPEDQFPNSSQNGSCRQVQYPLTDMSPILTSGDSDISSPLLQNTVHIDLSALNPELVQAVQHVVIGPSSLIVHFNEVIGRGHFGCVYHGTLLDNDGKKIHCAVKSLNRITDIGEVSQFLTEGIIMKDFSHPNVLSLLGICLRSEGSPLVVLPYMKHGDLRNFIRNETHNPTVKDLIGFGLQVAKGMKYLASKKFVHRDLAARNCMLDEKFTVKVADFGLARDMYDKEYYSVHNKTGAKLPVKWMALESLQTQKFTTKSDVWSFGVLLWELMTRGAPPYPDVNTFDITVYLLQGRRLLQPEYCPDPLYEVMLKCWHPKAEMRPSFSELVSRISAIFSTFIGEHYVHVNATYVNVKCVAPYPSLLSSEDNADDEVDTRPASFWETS
c-Src, sequence (P12931 whole entry): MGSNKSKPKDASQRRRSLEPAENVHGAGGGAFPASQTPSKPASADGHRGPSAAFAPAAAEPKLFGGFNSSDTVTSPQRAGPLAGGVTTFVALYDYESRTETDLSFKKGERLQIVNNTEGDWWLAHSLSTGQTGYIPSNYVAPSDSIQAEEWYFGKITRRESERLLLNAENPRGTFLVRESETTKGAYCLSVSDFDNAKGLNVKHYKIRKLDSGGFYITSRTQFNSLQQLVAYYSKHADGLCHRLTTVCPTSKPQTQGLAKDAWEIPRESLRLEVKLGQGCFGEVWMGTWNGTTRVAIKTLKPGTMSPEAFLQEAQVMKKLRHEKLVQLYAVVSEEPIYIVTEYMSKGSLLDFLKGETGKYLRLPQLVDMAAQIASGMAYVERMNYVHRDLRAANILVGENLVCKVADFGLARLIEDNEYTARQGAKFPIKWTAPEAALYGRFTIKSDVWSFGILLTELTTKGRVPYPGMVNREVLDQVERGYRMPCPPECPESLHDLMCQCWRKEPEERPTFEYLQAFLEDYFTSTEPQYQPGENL
VEGFR-2, sequence (P35968 20-1356): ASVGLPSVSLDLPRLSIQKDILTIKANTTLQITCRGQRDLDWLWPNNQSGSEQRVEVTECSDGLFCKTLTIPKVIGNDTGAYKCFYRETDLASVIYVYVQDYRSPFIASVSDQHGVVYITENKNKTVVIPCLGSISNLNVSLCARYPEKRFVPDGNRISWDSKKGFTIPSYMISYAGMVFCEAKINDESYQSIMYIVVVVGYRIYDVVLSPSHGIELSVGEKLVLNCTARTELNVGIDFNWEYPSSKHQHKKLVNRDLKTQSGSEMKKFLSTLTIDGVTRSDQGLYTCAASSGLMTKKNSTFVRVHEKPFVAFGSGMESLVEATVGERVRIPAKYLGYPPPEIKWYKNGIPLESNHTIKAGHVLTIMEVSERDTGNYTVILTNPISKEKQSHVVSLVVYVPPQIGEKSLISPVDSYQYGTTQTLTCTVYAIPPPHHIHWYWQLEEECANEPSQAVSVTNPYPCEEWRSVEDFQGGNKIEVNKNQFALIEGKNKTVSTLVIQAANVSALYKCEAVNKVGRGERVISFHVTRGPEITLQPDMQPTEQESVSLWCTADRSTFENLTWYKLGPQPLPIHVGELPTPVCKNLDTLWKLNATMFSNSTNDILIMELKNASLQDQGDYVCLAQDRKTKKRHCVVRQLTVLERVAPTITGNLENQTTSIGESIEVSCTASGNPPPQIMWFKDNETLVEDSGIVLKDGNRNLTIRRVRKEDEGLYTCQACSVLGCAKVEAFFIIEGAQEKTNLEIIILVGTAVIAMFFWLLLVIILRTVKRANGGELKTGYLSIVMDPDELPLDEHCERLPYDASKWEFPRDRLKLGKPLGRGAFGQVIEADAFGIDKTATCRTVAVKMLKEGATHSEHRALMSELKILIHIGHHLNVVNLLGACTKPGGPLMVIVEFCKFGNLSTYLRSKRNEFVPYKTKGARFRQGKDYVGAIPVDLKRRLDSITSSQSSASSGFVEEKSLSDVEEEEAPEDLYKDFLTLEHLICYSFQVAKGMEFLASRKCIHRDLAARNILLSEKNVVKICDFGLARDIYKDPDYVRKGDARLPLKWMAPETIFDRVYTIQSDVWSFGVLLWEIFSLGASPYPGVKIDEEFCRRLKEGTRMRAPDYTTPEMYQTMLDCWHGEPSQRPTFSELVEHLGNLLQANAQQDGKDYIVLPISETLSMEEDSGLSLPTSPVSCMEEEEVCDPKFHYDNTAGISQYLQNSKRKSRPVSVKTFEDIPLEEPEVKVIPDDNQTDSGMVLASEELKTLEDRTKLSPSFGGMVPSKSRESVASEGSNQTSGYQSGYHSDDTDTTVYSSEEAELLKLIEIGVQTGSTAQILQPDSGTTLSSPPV

| Molecule | IC50 (MST1R) [µM] | IC50 (HGFR) [µM] | IC50 (HCT-116 cells) [µM] | IC50 (HT-29 cells; [2]) [µM] | IC50 (COLO 205 cells; Homo sapiens, COLO 205) [µM] | IC50 [1] [µM] | further results |
| --- | --- | --- | --- | --- | --- | --- | --- |
| 2–(4-((4–(4-(3–(2-(2,6-Difluorophenyl)-4-oxotetrahydrothiophen-3-yl)ureido)-2-fluorophenoxy)-6-methoxyquinazolin-7-yl)oxy)piperidin-1-yl)acetamide [Compound 19] |  |  |  |  |  |  | IC50 (HT-29 cells; average of three separate determinations): 8.6 ± 0.67 µM; IC50 (COLO 205 cells): 5.3 ± 0.47 µM |
| CCN(CC)C(=O)N1CCC(Oc2cc3nccc(Oc4ccc(NC(=O)NN5C(=O)CSC5c5c(F)cccc5F)cc4F)c3cc2OC)CC1 (stereo not drawn) [BC2021-104511-15i, 4-((4-(4-(3-(2-(2,6-difluorophenyl)-4-oxothiazolidin-3-yl)ureido)-2-fluorophenoxy)-6-methoxyquinolin-7-yl)oxy)-N,N-diethylpiperidine-1-carboxamide, reference compound] | 0.11 | 0.27 | 4.8 ± 0.44 | 0.79 ± 0.058 | 0.72 ± 0.065 |  |  |
| CCOc1ccn(-c2ccc(F)cc2)c(=O)c1C(=O)Nc1ccc(Oc2ccnc(N)c2Cl)c(F)c1 [BMS-777607] |  |  |  |  |  |  | IC50 (Ron (MST1R)): 0.0018 µM |
| COc1cc2c(Nc3ccc(NC(=O)NN4C(=O)CSC4c4c(F)cccc4F)cc3F)ccnc2cc1OC1CCN(CC(N)=O)CC1 (stereo not drawn) [Compound 10i, 2–(4-((4-((4–(3-(2–(2,6-Difluorophenyl)-4-oxothiazolidin-3-yl)ureido)-2-fluorophenyl)amino)-6-methoxyquinolin-7-yl)oxy)piperidin-1-yl)acetamide] |  |  | > 10 | > 10 |  |  |  |
| CNC(=O)c1c(C)oc2cc(Oc3ncnc4cc(OC)c(OC)cc34)ccc12 [Fruquintinib, reference compound] |  |  | 2.2 ± 0.17 | 1.57 | > 10 |  |  |
| Cn1cc(-c2cnc3ccc4ccc(CS(=O)(=O)NCc5ccccn5)cc4c(=O)c3c2)cn1 [MK-8033, 1-[3-(1-Methyl-1H-pyrazol-4-yl)-5-oxo-5H-benzo[4,5]cyclohepta[1,2-b]pyridin-7-yl]-N-(pyridin-2-ylmethyl)methanesulfonamide] |  |  |  |  |  |  | IC50 (Ron (MST1R)): 0.007 µM |
| CNC(=O)c1cc(Oc2ccc(NC(=O)Nc3ccc(Cl)c(C(F)(F)F)c3)c(F)c2)ccn1 [Regorafenib, reference compound] |  |  | 8.2 ± 0.75 | 8.49 | > 10 |  |  |

Second part, led by results:

| IC50 (MST1R) [µM] | IC50 (HGFR) [µM] | Molecule | IC50 (HCT-116 cells) [µM] | IC50 (HT-29 cells; [2]) [µM] | IC50 (COLO 205 cells; Homo sapiens, COLO 205) [µM] | IC50 [1] [µM] | further results |
| --- | --- | --- | --- | --- | --- | --- | --- |
| 0.085 | 0.18 | COCC(=O)N1CCC(Oc2cc3nccc(Oc4ccc(NC(=O)NN5C(=O)CSC5c5c(F)cccc5F)cc4F)c3cc2OC)CC1 (stereo not drawn) [Compound 10b, 1–(2-(2,6-Difluorophenyl)-4-oxothiazolidin-3-yl)-3–(3-fluoro-4-((6-methoxy-7-((1–(2-methoxyacetyl)piperidin-4-yl)oxy)quinolin-4-yl)oxy)phenyl)urea] | 3.7 ± 0.34 | 3 ± 0.24 | 0.31 ± 0.021 | > 10 | IC50 (c-Src): 0.69 ± 0.057 µM; IC50 (AXL): 1.5 ± 0.15 µM; IC50 (PDGFRβ): 1.2 ± 0.095 µM; IC50 (RET): 1.52 ± 0.14 µM; IC50 (FLT3): > 10 µM; IC50 (VEGFR-2): 2.36 ± 0.18 µM; IC50 (ABL): 3.28 ± 0.26 µM |
| 0.072 | 0.14 | CNC(=O)CN1CCC(Oc2cc3nccc(Oc4ccc(NC(=O)NN5C(=O)CSC5c5c(F)cccc5F)cc4F)c3cc2OC)CC1 (stereo not drawn) [Compound 10c, 2–(4-((4–(4-(3–(2-(2,6-Difluorophenyl)-4-oxothiazolidin-3-yl)ureido)-2-fluorophenoxy)-6-methoxyquinolin-7-yl)oxy)piperidin-1-yl)-N-methylacetamide] | 5.9 ± 0.53 | 4.1 ± 0.27 | 0.44 ± 0.038 |  |  |
| 0.44 | 0.9 | COc1cc2c(Oc3ccc(NC(=O)NN4C(=O)CSC4c4c(F)cccc4F)cc3F)ccnc2cc1OC1CCN(C(=O)CN(C)C)CC1 (stereo not drawn) [Compound 10d, 1–(2-(2,6-Difluorophenyl)-4-oxothiazolidin-3-yl)-3–(4-((7-((1-(dimethylglycyl)piperidin-4-yl)oxy)-6-methoxyquinolin-4-yl)oxy)-3-fluorophenyl)urea] | 2.4 ± 0.26 | 2.9 ± 0.19 | 4.9 ± 0.38 | > 10 |  |
| 0.078 | 0.14 | COc1cc2c(Oc3ccc(NC(=O)NN4C(=O)CSC4c4c(F)cccc4F)cc3F)ccnc2cc1OC1CCN(CC(=O)N2CCOCC2)CC1 (stereo not drawn) [Compound 10f, 1–(2-(2,6-Difluorophenyl)-4-oxothiazolidin-3-yl)-3–(3-fluoro-4-((6-methoxy-7-((1–(2-morpholino-2-oxoethyl)piperidin-4-yl)oxy)quinolin-4-yl)oxy)phenyl)urea] | 2.6 ± 0.27 | 1.9 ± 0.11 | 0.42 ± 0.034 | > 10 |  |
| 0.11 | 0.18 | COc1cc2c(Oc3ccc(NC(=O)NN4C(=O)CSC4c4c(F)cccc4F)cc3F)ccnc2cc1OC1CCN(C(=O)COC(C)=O)CC1 (stereo not drawn) [Compound 10g, 2–(4-((4–(4-(3–(2-(2,6-Difluorophenyl)-4-oxothiazolidin-3-yl)ureido)-2-fluorophenoxy)-6-methoxyquinolin-7-yl)oxy)piperidin-1-yl)-2-oxoethyl acetate] | 4.8 ± 0.44 | 6.9 ± 0.47 | 0.59 ± 0.045 |  |  |
| 0.16 | 0.22 | COc1cc2c(Oc3ccc(NC(=O)NN4C(=O)CSC4c4c(F)cccc4F)cc3F)ccnc2cc1OC1CCN(C(=O)CO)CC1 (stereo not drawn) [Compound 10h, 1–(2-(2,6-Difluorophenyl)-4-oxothiazolidin-3-yl)-3–(3-fluoro-4-((7-((1–(2-hydroxyacetyl)piperidin-4-yl)oxy)-6-methoxyquinolin-4-yl)oxy)phenyl)urea] |  | 6.5 ± 0.43 | 0.85 ± 0.073 | > 10 |  |
